Where two headings read alike, the source gives them in different places. One block for each molecule: values may come before it.
Assays:
Format in all cases: cell-based
GluN1/2D NMDA receptor = GluN1/2D NMDA receptor (Homo sapiens, UniProt O15399+Q05586); assay: Two-electrode voltage clamp (TEVC), Xenopus oocytes expressing recombinant GluN1/2D; settings: 10 μM glycine and 10 μM glutamate; EC50 ND, n=5
Description: (§1) Two-electrode voltage clamp)TEVC) and patch clamp electrophysiology techniques were used to study CNS004 induced changes in NMDA receptor functions. Briefly, appropriate combinations of cRNA encoding different NMDA receptor subunits were injected into Xenopus oocytes and incubated at about 18° C. for about 2-4 days before TEVC assays. TEVC assays were performed with a −60 mV holding potential. […]

GluN1/2A NMDA receptor [1] = target: T1, GluN1/2A NMDA receptor (Homo sapiens, UniProt Q05586+Q12879); assay: Patch clamp electrophysiology, HEK293T cells expressing recombinant GluN1/2A; settings: 100 μM CNS004
Description: (§2) Patch clamp electrophysiology was also performed. Briefly, HEK293T cells were transfected with cDNA encoding NMDA receptor subunits 18-24 hours prior to patch clamp procedures. The effect of CNS004 on the agonist induced NMDA receptor function was evaluated at −80 mV.

GluN1/2C NMDA receptor = GluN1/2C NMDA receptor (Homo sapiens, UniProt Q05586+Q14957); assay: Two-electrode voltage clamp (TEVC), Xenopus oocytes expressing recombinant GluN1/2C; settings: 10 μM glycine and 10 μM glutamate; EC50 ND, n=6
Description: as §1

[2] = target: T2, GluN1/2A/2B NMDA receptor (Homo sapiens, UniProt Q05586+Q12879+Q13224); assay: Patch clamp electrophysiology, HEK293T cells expressing recombinant GluN1/2A/2B
T2 construct: expressed in transfected cells; host or cells: HEK293T
Description: as §2

GluN1/2A NMDA receptor [3] = target: T1, GluN1/2A NMDA receptor; assay: Two-electrode voltage clamp (TEVC), Xenopus oocytes expressing recombinant GluN1/2A
Description: as §1

[4] = target: GluN1/2A/2B triheteromeric NMDA receptor (Homo sapiens, UniProt Q05586+Q12879+Q13224); assay: Two-electrode voltage clamp (TEVC), Xenopus oocytes expressing recombinant GluN1/2A/2B
Description: Briefly, appropriate combinations of cRNA encoding different NMDA receptor subunits were injected into Xenopus oocytes and incubated at about 18° C. for about 2-4 days before TEVC assays. TEVC assays were performed with a −60 mV holding potential.

GluN1/2B NMDA receptor = GluN1/2B NMDA receptor (Homo sapiens, UniProt Q05586+Q13224); assay: Two-electrode voltage clamp (TEVC), Xenopus oocytes expressing recombinant GluN1/2B
GluN1/2B NMDA receptor, sequence (Q13224 27-1484, other chains not shown): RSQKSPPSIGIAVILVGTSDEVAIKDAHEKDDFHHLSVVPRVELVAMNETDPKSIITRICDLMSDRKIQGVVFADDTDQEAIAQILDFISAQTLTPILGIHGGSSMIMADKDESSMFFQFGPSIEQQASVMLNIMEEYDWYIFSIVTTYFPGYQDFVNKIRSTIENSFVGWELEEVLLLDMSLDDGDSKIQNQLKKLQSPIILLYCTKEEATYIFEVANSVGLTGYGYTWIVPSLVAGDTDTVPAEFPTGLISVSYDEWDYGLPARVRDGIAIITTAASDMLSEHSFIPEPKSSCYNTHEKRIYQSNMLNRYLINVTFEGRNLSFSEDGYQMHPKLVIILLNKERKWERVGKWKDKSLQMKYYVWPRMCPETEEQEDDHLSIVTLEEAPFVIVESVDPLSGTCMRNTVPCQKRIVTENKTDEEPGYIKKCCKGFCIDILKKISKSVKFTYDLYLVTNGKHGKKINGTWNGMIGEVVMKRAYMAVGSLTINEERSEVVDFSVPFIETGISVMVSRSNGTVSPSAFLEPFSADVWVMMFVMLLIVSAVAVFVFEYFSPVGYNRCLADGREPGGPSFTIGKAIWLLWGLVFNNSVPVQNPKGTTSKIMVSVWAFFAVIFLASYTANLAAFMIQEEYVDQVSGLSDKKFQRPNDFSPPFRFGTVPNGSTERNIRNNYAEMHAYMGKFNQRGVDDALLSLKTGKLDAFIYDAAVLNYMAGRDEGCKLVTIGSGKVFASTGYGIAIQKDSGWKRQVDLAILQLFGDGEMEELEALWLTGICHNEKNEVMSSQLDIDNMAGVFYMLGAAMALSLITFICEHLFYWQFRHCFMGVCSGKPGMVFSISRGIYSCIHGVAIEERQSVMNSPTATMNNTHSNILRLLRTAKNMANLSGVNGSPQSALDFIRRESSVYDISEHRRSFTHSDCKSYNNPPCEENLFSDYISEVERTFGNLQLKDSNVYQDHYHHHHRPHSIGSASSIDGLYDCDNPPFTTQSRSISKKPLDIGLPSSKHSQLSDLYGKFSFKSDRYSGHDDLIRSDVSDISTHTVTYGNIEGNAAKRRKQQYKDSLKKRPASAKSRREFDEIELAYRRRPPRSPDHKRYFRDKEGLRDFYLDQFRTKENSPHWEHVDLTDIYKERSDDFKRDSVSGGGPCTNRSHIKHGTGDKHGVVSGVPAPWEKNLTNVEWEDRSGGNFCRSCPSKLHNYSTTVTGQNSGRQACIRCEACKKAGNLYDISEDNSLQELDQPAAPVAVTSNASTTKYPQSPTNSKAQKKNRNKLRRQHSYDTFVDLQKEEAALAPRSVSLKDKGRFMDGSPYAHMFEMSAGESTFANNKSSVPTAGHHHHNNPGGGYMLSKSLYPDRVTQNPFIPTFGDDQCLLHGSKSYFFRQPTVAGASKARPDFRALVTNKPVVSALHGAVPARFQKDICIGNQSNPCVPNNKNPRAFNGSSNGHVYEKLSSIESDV
Description: as §1

GluN1/2B = GluN1/2B (Homo sapiens, UniProt Q05586+Q13224); assay: NMDA receptor subunit selectivity of CNS004 analogs, average response, 1/2B; settings: compound 100 μM
GluN1/2B, sequence (Q13224 27-1484, other chains not shown): as above

GluN1/2A/2B (TH) = GluN1/2A/2B (TH) (Homo sapiens, UniProt Q05586+Q12879+Q13224); assay: NMDA receptor subunit selectivity of CNS004 analogs, average response, TH; settings: compound 100 μM
GluN1/2A = GluN1/2A (Homo sapiens, UniProt Q05586+Q12879); assay: NMDA receptor subunit selectivity of CNS004 analogs, average response, 1/2A; settings: compound 100 μM
GluN1/2A, sequence (Q12879 23-1464, other chains not shown): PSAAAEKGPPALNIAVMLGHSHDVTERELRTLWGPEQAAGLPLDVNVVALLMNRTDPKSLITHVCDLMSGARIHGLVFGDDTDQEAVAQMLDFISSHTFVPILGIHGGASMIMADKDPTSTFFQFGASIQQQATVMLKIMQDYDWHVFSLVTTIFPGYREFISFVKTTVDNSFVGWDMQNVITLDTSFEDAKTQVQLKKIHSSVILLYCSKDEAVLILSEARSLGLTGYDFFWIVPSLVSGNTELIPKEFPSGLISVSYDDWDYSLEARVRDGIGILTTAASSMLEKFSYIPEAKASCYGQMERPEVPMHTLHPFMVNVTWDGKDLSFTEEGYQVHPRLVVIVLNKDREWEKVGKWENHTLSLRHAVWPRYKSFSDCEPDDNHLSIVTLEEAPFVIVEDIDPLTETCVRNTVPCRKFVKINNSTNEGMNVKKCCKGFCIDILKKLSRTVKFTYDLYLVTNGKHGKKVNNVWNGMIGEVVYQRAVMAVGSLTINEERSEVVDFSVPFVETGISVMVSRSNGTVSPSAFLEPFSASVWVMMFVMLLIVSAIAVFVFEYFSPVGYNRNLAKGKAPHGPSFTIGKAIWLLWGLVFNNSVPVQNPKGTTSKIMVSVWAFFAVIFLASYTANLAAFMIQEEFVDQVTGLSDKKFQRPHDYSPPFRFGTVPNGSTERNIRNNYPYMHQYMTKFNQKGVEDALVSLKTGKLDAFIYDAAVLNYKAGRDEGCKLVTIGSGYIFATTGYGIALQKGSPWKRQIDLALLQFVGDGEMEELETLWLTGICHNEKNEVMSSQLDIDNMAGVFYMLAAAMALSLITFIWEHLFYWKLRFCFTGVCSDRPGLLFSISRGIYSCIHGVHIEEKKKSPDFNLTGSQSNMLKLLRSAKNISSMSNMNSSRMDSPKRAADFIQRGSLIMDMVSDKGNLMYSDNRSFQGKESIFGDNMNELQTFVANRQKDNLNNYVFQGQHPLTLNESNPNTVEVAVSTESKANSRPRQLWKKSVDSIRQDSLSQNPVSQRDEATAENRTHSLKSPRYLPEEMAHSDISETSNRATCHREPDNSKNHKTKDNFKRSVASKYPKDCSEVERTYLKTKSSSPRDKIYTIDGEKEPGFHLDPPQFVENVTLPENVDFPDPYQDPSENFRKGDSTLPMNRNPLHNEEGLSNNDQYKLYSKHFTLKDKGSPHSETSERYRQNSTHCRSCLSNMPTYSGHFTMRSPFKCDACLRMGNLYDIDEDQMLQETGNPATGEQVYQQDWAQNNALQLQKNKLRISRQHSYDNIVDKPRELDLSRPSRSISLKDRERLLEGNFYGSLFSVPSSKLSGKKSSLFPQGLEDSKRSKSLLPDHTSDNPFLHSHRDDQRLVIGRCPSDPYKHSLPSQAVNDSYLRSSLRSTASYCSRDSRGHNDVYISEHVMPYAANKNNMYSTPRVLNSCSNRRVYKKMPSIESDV

SMILES: O=C(NC(=S)N1CCCCC1c1cccnc1)c1ccc(C(F)(F)F)cc1 (stereo not drawn) [Compound 2]
Average Response (% inhibition), 1/2B (GluN1/2B): −14.5863 % inhibition
Average Response (% inhibition), TH (GluN1/2A/2B (TH)): −3.954 % inhibition
Average Response (% inhibition), 1/2A (GluN1/2A): −76.1696 % inhibition

SMILES: O=C(NC(=O)N1CCCCC1c1cccnc1)c1ccc(F)cc1 (stereo not drawn) [Compound 4]
Average Response (% inhibition), 1/2B (GluN1/2B): 5.755 % inhibition
Average Response (% inhibition), TH (GluN1/2A/2B (TH)): 4.722 % inhibition
Average Response (% inhibition), 1/2A (GluN1/2A): 20.43 % inhibition

SMILES: O=C(NC(=S)N1CCCCC1c1cccnc1)c1ccc(C2CC2)cc1 (stereo not drawn) [Compound 5]
Average Response (% inhibition), 1/2B (GluN1/2B): 9.468 % inhibition
Average Response (% inhibition), TH (GluN1/2A/2B (TH)): −2.571 % inhibition
Average Response (% inhibition), 1/2A (GluN1/2A): 7.117 % inhibition

SMILES: O=C(NC(=S)N1CCCCC1c1cccnc1)c1ccc(CCCF)cc1 (stereo not drawn) [Compound 6]
Average Response (% inhibition), 1/2B (GluN1/2B): 6.739 % inhibition
Average Response (% inhibition), TH (GluN1/2A/2B (TH)): 7.444 % inhibition
Average Response (% inhibition), 1/2A (GluN1/2A): −21.076 % inhibition

SMILES: O=C(NC(=S)N1CCCCC1c1cccnc1)c1ccc(P(=O)(O)O)cc1 (stereo not drawn) [Compound 7]
Average Response (% inhibition), 1/2B (GluN1/2B): 3.872 % inhibition
Average Response (% inhibition), TH (GluN1/2A/2B (TH)): 16.4617 % inhibition
Average Response (% inhibition), 1/2A (GluN1/2A): −1.858 % inhibition

SMILES: COCCCc1ccc(C(=O)NC(=S)N2CCCCC2c2cccnc2)cc1 (stereo not drawn) [Compound 8]
Average Response (% inhibition), 1/2B (GluN1/2B): 6.998 % inhibition
Average Response (% inhibition), TH (GluN1/2A/2B (TH)): 8.377 % inhibition
Average Response (% inhibition), 1/2A (GluN1/2A): 0.4959 % inhibition

SMILES: CC(C(O)c1ccc(O)cc1)N1CCC(Cc2ccccc2)CC1 (stereo not drawn) [ifenprodil, reference compound]
selectivity for GluN1/2A/2B receptor (FIG. 9G) ([4]; GluN1/2B selective antagonist): intermediate selectivity

Second part, led by results:

effect on GluN1/2D (DRC) (GluN1/2D NMDA receptor): minimally inhibited
effect of co-application with agonist on steady-state currents, GluN1/2A (GluN1/2A NMDA receptor [1]; 30 μM glycine and 100 μM glutamate): potentiates steady-state currents
effect on 1/2A receptor currents at reduced glutamate (GluN1/2A NMDA receptor [1]; 100 μM glycine and 300 nM glutamate): largely potentiated
effect on GluN1/2C (DRC) (GluN1/2C NMDA receptor): no activity
effect of co-application with agonist on steady-state currents, GluN1/2A/2B ([2]; 100 μM CNS004, 30 μM glycine and 100 μM glutamate): potentiates steady-state currents
effect on 1/2A/2B currents at reduced glutamate ([2]; 100 μM CNS004, 100 μM glycine and 300 nM glutamate): inhibits
effect of CNS004 pre-application on steady-state currents, GluN1/2A/2B ([2]; 100 μM CNS004 pre-application, 30 μM glycine and 100 μM glutamate): steep reduction in steady-state currents
effect on GluN1/2A (DRC) (GluN1/2A NMDA receptor [3]; 10 μM glycine and 10 μM glutamate, EC50 ND, n=6): minimally inhibited
change of glycine potency on GluN1/2A (GluN1/2A NMDA receptor [3]; 30 uM CNS4, glutamate 100 uM): increase in glycine potency
change of glutamate potency on GluN1/2A (GluN1/2A NMDA receptor [3]; 30 uM CNS4, glycine 100 uM): increase in glutamate potency
activity on GluN1/2A (averaged dose response curve) (GluN1/2A NMDA receptor [3]; 100 μM glycine and 100 μM glutamate, EC50 not determined, n=3): minimal activity
EC50 ([4]; 10 μM glycine and 10 μM glutamate, n=6, read-out: EC50 of potentiation of GluN1/2A/2B (averaged and normalized DRC)): 39 ± 22.4 µM
change of glycine potency on GluN1/2A/2B ([4]; 30 uM CNS4, glutamate 100 uM): increase in glycine potency
change of glutamate potency on TH (GluN1/2A/2B) ([4]; 30 uM CNS4, glycine 100 uM): increase in glutamate potency
effect on agonist induced current in GluN1/2A/2B in three sequences of application ([4]; 100 μM CNS004, 100 μM glycine+100 μM glutamate, co-application, agonist pre-application, CNS004 pre-application): potentiation
EC50 ([4]; 100 μM glycine and 100 μM glutamate, n=5, read-out: EC50 of potentiation of GluN1/2A/2B (averaged dose response curve)): 160 ± 15.4 µM
receptor activation in the absence of agonist glutamate or glycine ([4]; recombinant GluN1/2A, GluN1/2B and GluN1/2A/2B traces (FIG. 1E), no agonist): did not activate the receptor
change of glycine potency on GluN1/2B (GluN1/2B NMDA receptor; 30 uM CNS4, glutamate 100 uM): increase in glycine potency
activity on GluN1/2B (averaged dose response curve) (GluN1/2B NMDA receptor; 100 μM glycine and 100 μM glutamate, EC50 not determined, n=4): minimal activity
EC50 (GluN1/2B NMDA receptor; read-out: EC50 of potentiation of GluN1/2B (averaged and normalized DRC)): 8.67 ± 2.77 µM
SMILES: O=C(NC(=S)N1CCCCC1c1cccnc1)c1ccc(F)cc1 (stereo not drawn) [CNS004, 4-Fluoro-N-(2-(pyridin-3-yl)piperidine-1-carbonothioyl)benzamide]
effect of CNS004 pre-application on desensitization, GluN1/2A/2B ([2]; 100 μM CNS004 pre-application, 30 μM glycine and 100 μM glutamate, GluN1/2A/2B only): promotes desensitization
effect on glycine and/or glutamate potency in GluN1/2A/2B (FIGS. 15A-15H) ([4]; 30 μM and 100 μM CNS004): increases Glycine and/or Glutamate Potency
effect of pre-application of CNS004 alone on agonist induced current response ([4]; recombinant GluN1/2A, GluN1/2B and GluN1/2A/2B traces (FIG. 1E)): did not change the agonist induced current response

Average Response (% inhibition), 1/2B (GluN1/2B): −45.1553 % inhibition
Average Response (% inhibition), TH (GluN1/2A/2B (TH)): −13.1155 % inhibition
Average Response (% inhibition), 1/2A (GluN1/2A): −52.246 % inhibition
SMILES: Fc1ccc(C(=S)NC(=S)N2CCCCC2c2cccnc2)cc1 (stereo not drawn) [Compound 3]

Average Response (% inhibition), 1/2B (GluN1/2B): −19.0618 % inhibition
Average Response (% inhibition), TH (GluN1/2A/2B (TH)): −11.9509 % inhibition
Average Response (% inhibition), 1/2A (GluN1/2A): −31.9381 % inhibition
SMILES: O=C(NC(=S)N1CCCCC1c1cccnc1)c1ccc(Cl)c(F)c1 (stereo not drawn) [Compound 9]

Average Response (% inhibition), 1/2B (GluN1/2B): −56.1908 % inhibition
Average Response (% inhibition), TH (GluN1/2A/2B (TH)): −3.494 % inhibition
Average Response (% inhibition), 1/2A (GluN1/2A): −3.81 % inhibition
SMILES: O=C(NC(=S)N1CCCCC1c1cccnc1)c1cccc(F)n1 (stereo not drawn) [Compound 40]

Average Response (% inhibition), 1/2B (GluN1/2B): 0.6785 % inhibition
Average Response (% inhibition), TH (GluN1/2A/2B (TH)): 27.54 % inhibition
Average Response (% inhibition), 1/2A (GluN1/2A): 15.8054 % inhibition
SMILES: COc1cccc(C(=O)NC(=S)N2CCCCC2c2cccnc2)c1OC (stereo not drawn) [Compound 41]

— patent US12485115B2, “Biased NMDA receptor modulators and uses thereof” (EDWARD VIA COLLEGE OF OSTEOPATHIC MEDICINE, priority 2018, dated 2025)
